The values below come from patent US7795305B2, “CDDO-compounds and combination therapies thereof” (Board of Regents, The University of Texas System, priority 2000, dated 2010).

One series has as its system U937 cells. The series is described as follows: Apoptotic sub-G1 cells. Conditions: 1 μM, 48 hrs. Format: cell-based, human. The procedure:
(§1) Cell kinetic and DNA fragmentation studies. The cell cycle kinetics was determined by staining cells with acridine orange for cellular DNA and RNA content followed by flow cytometeric analysis as described. Samples were measured in a FACScan flow cytometer (Becton Dickinson, San Jose, Calif.) using the 488-nm line of a […] argon laser and filter settings for green (530 nm) (DNA) and red (585 nm) (RNA) fluorescence. Ten thousand events were stored in list mode for analysis. The percentage of cells in the “sub G1 peak” defined the proportion of apoptotic cells in the tested populations. […] Cell-cycle kinetics was analyzed using ModFit software (Verity Software House, Inc., Topsham, Me.).

The subject of the next series is D9 cells, vector control. The series can be described thus: Annexin V / cell number in D9 vector control cells. The series is classed as cell-based. On the procedure: Annexin V staining. Cells were washed in phosphate-buffered saline (PBS) and resuspended in 100 μl of binding buffer containing Annexin V (Roche Diagnostic Corporation, Indianapolis, Ind.). Cells were analyzed by flow cytometry after the addition of propidium iodide (PI). Annexin V binds to those cells that express phosphatidylserine on the outer layer of the cell membrane, and PI stains the cellular DNA of those cells with a compromised cell membrane. This allows for live cells (unstained with either fluorochrome) to be discriminated from apoptotic cells (stained only with annexin V) and necrotic cells (stained with both annexin and PI).
To characterize the correlation between PPARγ and caspase activation, caspase-3 levels in D9 cells transfected with wt-PPARγ were analyzed. Six different single cell-derived clones were treated with 3 μM CDDO or vehicle controls for 5 hrs. Caspase-3 cleavage was analyzed by Western blot. A decrease in pro-caspase-3 with appearance of the cleaved product was readily observed in all clones. The degree of cleavage was higher in PPARγ-transfected than in vector control cells that express endogenous PPARγ. […] These changes correlated with plasma membrane changes: vector control=47.0% annexin V-positive cells; wt-PPARγ-transfected cells=73.3±1.1% annexin V (+), n=6. […] PPARγ-transfected cells were also more sensitive to PPARγ-ligand 15d-PGJ2 (41.00% vs 16.0% annexin (+) cells at 3 μM).
To characterize the correlation between PPARγ and caspase activation, caspase-3 levels in D9 cells transfected with wt-PPARγ were analyzed. Six different single cell-derived clones were treated with 3 μM CDDO or vehicle controls for 5 hrs. Caspase-3 cleavage was analyzed by Western blot. A decrease in pro-caspase-3 with appearance of the cleaved product was readily observed in all clones. The degree of cleavage was higher in PPARγ-transfected than in vector control cells that express endogenous PPARγ. […] These changes correlated with plasma membrane changes: vector control=47.0% annexin V-positive cells; wt-PPARγ-transfected cells=73.3±1.1% annexin V (+), n=6. […]

Series [1] has as its system HL-60 cells. The series can be described thus: Apoptotic sub-G1 cells / apoptosis. Format: cell-based, human. The procedure:
as §1
Comparison of CDDO-compounds with other PPARγ ligands. […] In contrast, CDDO induced monocytic differentiation at 0.5 to 1.0 μM and apoptosis at 1 μM in HL-60 cells. […] These experiments will define the ability of CDDO to induce differentiation and apoptosis in comparison to other PPARγ ligands. Similar experiments are contemplated with CDDO-Me.

Series [2] relates to Bcl-2 in CD34+ cells of primary AML. The series is described as follows: Bcl-2 expression level in CD34+ cells of primary AML samples. Format: cell-based, human.
The test system of series [3] is Bcl-2 protein in U937 cells. The series is described as follows: Bcl-2 protein by quantitative flow cytometry. The series is classed as cell-based, human. The settings on record: 1 μM, 72 hrs. On the procedure:
The involvement of the mitochondrial apoptotic pathway in CDDO mediated apoptosis was analyzed in U937 cells.

Series [4] deals with RXR-expressing HL-60 cells. The series is described as follows: Acetylation of nuclear histones, Western blot. The series is classed as cell-based, human. Conditions: alone or with RXR-specific ligand LG-100268. From the text:
PPARγ must form a heterodimer with RXR to bind DNA and activate transcription (Nolte et al., 1998). RXR-specific ligands markedly induce the binding of the co-activator SRC-1 to PPARγ-RXR heterodimers ([…] et al., 1998), and assembly of this complex results in a large increase in transcriptional activity. […] One method to increase the effects of PPARγ ligands contemplated herein is by combination with ligands specific for RXR. […] TSA, the histone deacetylase inhibitor, served as a positive control. Combination of the PPARγ ligand CDDO with TSA synergistically induce differentiation in HL-60 cells and the present inventors contemplate that this is a result of transcriptional activation of target genes via histone acetylation.

For series [5], the system named is HL-60 cells. The series can be described thus: CDDO-Me plus LG-100268 in HL-60 cells (Table 6). Format: cell-based, human. Also noted: unit not given here. The settings on record: 24 hrs; CDDO-Me 0.1 μM, no ligand. The procedure:
Finally, the inventors examined if CDDO-Me combined with ATRA would enhance differentiation. HL-60 cells were cultured with of 0.1 μM of CDDO-Me for 72 hrs, alone or in combination with 1 μM ATRA. […] At 48 hrs, 67.4% in CDDO-Me-treated cells and 63.5% in ATRA-treated cells were CD11b+ (compared with 40% in DMSO controls), while 85% of cells were positive when both compounds were given simultaneously. These studies were repeated 3 times and yielded essentially identical results. Next, combined treatment with CDDO-Me and RXR-specific ligand were tested for potentiation of anti-leukemic effects. RXR-specific ligand LG-100268 (Ligand Pharmaceuticals) used at 10, 100 nm and 1 μM enhanced killing of HL-60 cells in a dose-dependent manner (Table 6).

In a further series the test system is U937/S70A Bcl-2 cells. The series can be described thus: Viability of Bcl-2 mutant transfectants. The series is classed as cell-based, human. The settings on record: 0.1 μM. From the text:
(§2) Cell lines. HL-60, KG-1, U937, and Jurkat cell lines were obtained from the American Type Culture Collection (Rockville, Md.). NB4 cells were kindly provided by Dr. M. Lanotte. HL-60-doxorubicin-resistant cells (HL-60-DOX) were also used. U937/Bcl-2 and its appropriate vector controls (U937/pCEP) were provided by Dr. S. Grant. U937 cells were transfected with WT, S70A, or S70E cDNA containing cytomegalovirus plasmids by electroporation (200 V, 975 μF capacitance) and selected and maintained in the medium plus 500 μg/mL G418 (Gibco BRL, Gaithersburg, Md.)
(§3) The effect of CDDO-Me on Bcl-2 phosphorylation was further investigated by performing metabolic labeling studies with ^32P-orthophosphoric acid. […] To further investigate mechanisms of inhibition of Bcl-2 phosphorylation that could may a role in CDDO-Me-induced cell death, the inventors selected U937 cells that were stably transfected with a serine 70→alanine, Bcl-2 mutant (S70A).

A further series concerns U937 S70E Bcl-2 cells. The series can be described thus: Viability of Bcl-2 mutant transfectants. Format: cell-based, human. The settings on record: 0.1 μM.
Description: as §2, §3

In the case of `CC1(C)CCC2(C(=O)O)CCC3(C)C(C(=O)C=C4C5(C)C=C(C#N)C(=O)C(C)(C)C5CCC43C)C2C1` (centres unmarked) [CDDO, 2-cyano-3,12-dioxoolen-1,9-dien-28-oic acid], the “apoptotic sub-G1 cells” value is listed as 69.4% in the series with U937 cells and 34.8% in the series on HL-60 cells [1] (1 μM, 48 hrs). In the series on D9 cells, vector control (3 μM (CDDO: 5 hrs)), the “annexin V-positive cells” value was 47.0%. In addition, in the series with D9 cells, vector control (3 μM CDDO), the cell number result is recorded as “did not change”. In the series with HL-60 cells [1] (HL-60 cells), the “concentration at which apoptosis was induced” value was found to be 1 µM. In addition, in [2], the “primary AML samples with significantly decreased Bcl-2 expression level in CD34+ cells” value is 9 of 18. Besides, the “decrease in Bcl-2 protein” value in series [3] is given as above 40%. Further, the “acetylation of histones H3 and H4” value in series [4] is “induction of acetylation of histones H3 and H4”.

For `COC(=O)[C@]12CCC(C)(C)C[C@H]1[C@H]1C(=O)C=C3[C@@]4(C)C=C(C#N)C(=O)C(C)(C)[C@@H]4CC[C@@]3(C)[C@]1(C)CC2` [CDDO-Me], the “Table 6 value: CDDO-Me-induced monocytic differentiation in HL-60 cells” value with HL-60 cells [5] was 22.4. Further, in the series with U937/S70A Bcl-2 cells, the decrease in viability is on record as 60%. This molecule showed a viable cells with U937 S70E Bcl-2 cells of 75%.
